The nature of data set [1]: Thermodynamic aqueous solubility in USP phosphate buffer (Example 25). Format: physicochemical. As to conditions: aqueous buffer, thermodynamic from solid; USP phosphate buffer pH 7.4, 24 h at 20° C., LC-MS/MS; read-out: Thermodynamic aq solubility. Here is the method: The method described here was developed to accurately determine the aqueous solubility of compounds of the invention in buffer solution at a given pH.
Solid material (1 mg) of test compound is added to a glass vial followed by 1 ml of buffer solution (pH 7.4 if another pH not is stated). The solution is left on an orbital shaker for 24 h at 20° C. After incubation, the remaining solid material is separated from solution and the solubility is quantified using LC-MS/MS.
Prepare 0.2 M monobasic potassium phosphate solution by dissolving 27.22 g of KH2PO4 (MW=136.09 g/mol) in water, dilute with water to 1000 mL.
Add 250 mL of the monobasic potassium phosphate solution in a 1000 mL volumetric flask together with 195.5 mL 0.2M NaOH (aq). Add water to 1000 mL. Check pH.
Compounds of the invention/examples to be tested were provided as solid material, weighed into glass vials (2 mL). Each vial contains approximately 1 mg solid compound, two vials/compound are prepared, i.e. duplicate samples of each compound. If a freshly prepared 10 mM DMSO stock solution was available, this solution was used for MS optimization and preparation of standards. If a DMSO-stock solution was not available, a 10 mM solution from solid material 1 mg was prepared.
• Test compounds are employed as solid material. Since duplicate samples are prepared for each compound, each test compound arrives in two vials (1+1 mg). Samples are denoted as sample 1 and 2. • Note amount of substance in each vial. Add USP phosphate buffer pH 7.4 (1 mL) to each sample vial and seal vials using screw caps. Determine whether the solutions are saturated or if compounds are dissolved, note appearance and time. Start incubation; the samples are incubated on an orbital shaker (450 rpm) at 20° C. for 24 hours.
• Take out the 1 mM DMSO-stock solutions of compounds that are to be tested from freezer. If no 1 mM solutions are available, use master solutions with concentration of 10 mM. Allow the solutions to thaw at rt. • Collect two 96-deep well plates, glass inserts, sealing film, and an 8-channel expandable pipette with tall tips. • Abort shaking after 24 hour. • Note if samples are saturated or if compounds have dissolved. • Transfer 720 μL of sample slurry from each sample vial into glass inserts in a 96-deep well plate using an 8-channel expandable pipette. Samples 1 and 2 are transferred to separate plates. Thus, all samples 1 are placed in one plate and all samples 2 in the second plate. • Seal the plates using sealing film. • Centrifuge the plates at 3000 rpm for 15 min at rt. Set acceleration to 9 and brake to 7 (9=fastest acc/brake, 0=slowest acc/brake). • Transfer the supernatants to new glass inserts using an 8-channel pipette, centrifuge samples a second time. • Repeat the procedure above, i.e. centrifuge samples a third time. • After the third centrifugation, transfer supernatant to glass vials, seal vials with screw caps. Control that the solutions are clear and that no particles are present in sample. If solid material is observed, an additional centrifugation step is performed. • Standards are prepared from DMSO-stock solutions (1 or 10 mM). For each compound, transfer […] 1 mM solution to a glass vial, add DMSO (90 μL) to reach a final concentration of 100 μM, seal with screw cap and mix solution quickly on a vortex mixer. Further dilute the 100 μM solution with a 1:1 mixture of acetonitrile and USP phosphate buffer (pH 7.4) to standards with concentration 1000, 500, 100, 25, 2, and 1 nM. Standards are prepared in test tubes.
• Place standards in autosampler. • Try out the dilution of solubility samples so that their response will be within the standard curve. Dilute solubility sample one (or two) with the 1:1 mixture of acetonitrile:buffer. […]

Data set [2] addresses T1, LTC4 synthase (Homo sapiens, UniProt Q16873).
T1 sequence (Q16873 1-150): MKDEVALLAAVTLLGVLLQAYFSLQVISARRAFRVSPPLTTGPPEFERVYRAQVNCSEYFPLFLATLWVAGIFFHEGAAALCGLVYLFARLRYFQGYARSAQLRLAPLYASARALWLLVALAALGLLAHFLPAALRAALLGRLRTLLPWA
Nature of the data set: Test 1 in vitro assay: LTC4 synthase converts LTA4 to LTC4, HTRF detection. It is filed as biochemical. Also noted: made in house; host or cells: Pichia pastoris. As to conditions: Table 2; Test 1 (unless otherwise indicated). As to the method: In the assay, LTC4 synthase catalyses the reaction where the substrate LTA4 is converted to LTC4. Recombinant human LTC4 synthase is expressed in Piccia pastoralis and the purified enzyme is dissolved in 25 mM tris-buffer pH 7.8 supplemented with 0.1 mM glutathione (GSH) and stored at −80° C. The assay is performed in phosphate buffered saline (PBS) pH 7.4 and 5 mM GSH in 384-well plates.
The following is added chronologically to each well:
1. 48 μL LTC4 synthase in PBS with 5 mM GSH. The total protein concentration in this solution is 0.5 μg/mL. 2. 1 μL inhibitor in DMSO (final concentration 10 μM). 3. Incubation of the plate at room temperature for 10 min. 4. 1 μL LTA4 (final concentration 2.5 μM). 5. Incubation of the plate at room temperature for 5 min. 6. 10 μL of the incubation mixture is analysed using homogenous time resolved fluorescent (HTRF) detection.
(§1) IC50 values for title compounds of the examples are depicted in the tables hereinafter (where, they are the values obtained using Test 1, unless otherwise indicated).
A general note: TR-FRET usually uses a lanthanide donor and a delayed reading to cut background.

In data set [3] the target is T1, LTC4 synthase. Nature of the data set: Test 2: LTC4 synthase IC50 procedure, ten concentrations, LTC4 HTRF kit. Format: biochemical. As to conditions: Table 2; cells marked (Test 2). Here is the method: For certain compounds, in order to obtain IC50-values for the compounds, following procedure was used: • 1. A volume (24 μL) of 0.25 μg/mL LTC4 synthase in 75 mM tris (pH ˜8.5), 0.5 mM MgCl2 and 3 mM GSH was preincubated for 10 min with 0.5 μL of compound of interest in DMSO at ten different concentrations, typically in the range 10^−9,5-10^−5M as well as with DMSO only. The buffer is used as background. Runs are performed in duplicates. • 2. The enzymatic reaction is initiated by addition of 0.5 μL LTA4 in diglyme (final assay concentration 8 μM). • 3. The reaction is stopped after 1 min by addition of double the reaction volume of a stop solution (MeOH:H2O:acetic acid 70:30:1). • 4. After 15 fold dilution in PBS, LTC4 formation is detected with LTC4 HTRF kit (Cisbio, cat. No 64LC4PEC) and a fluorescence reader. Typically 10 μL of sample is mixed with 5 μL of each of the HTRF reagents d2 and k and analyzed as described in the kit manual.
The detected product concentration, with background subtracted, is plotted versus compound concentration and IC50 is determined as 50% of maximum inhibition.
as §1

Values after ≈ are worked out from the molar mass of the structure shown.

`O=C(c1ccc(C(=O)c2cccc(O)c2)c(C(=O)O)c1)c1ccc(N(CC2CC2)c2ccc(Cl)cc2)cn1` [Example 14, 5-(5-((4-Chlorophenyl)(cyclopropylmethyl)amino)picolinoyl)-2-(3-hydroxybenzoyl)benzoic acid]: the thermodynamic solubility (usually the concentration in solution at equilibrium with solid) at 24 h in data set [1] turned out to be 1210 µM (≈ 637 µg/mL). For the same compound, on LTC4 synthase [2], half-maximal inhibition (IC50) was put at 30 nM.

Consider `CN(c1ccc(Cl)cc1)c1ccc(C(=O)c2ccc(C(=O)C3CC4CCC3C4)c(C(=O)O)c2)nc1` (stereo not shown) [Example 15, 2-(Bicyclo[2.2.1]heptane-2-carbonyl)-5-(5-((4-chlorophenyl)(methyl)amino)-picolinoyl)benzoic acid], for which the solubility (thermodynamic) at 24 h in data set [1] is 1980 µM (≈ 969 µg/mL). The IC50 (commonly the concentration at which inhibition is half-maximal) at LTC4 synthase [2] was 94 nM.

As for `CN(c1ccc(Cl)cc1)c1ccc(C(=O)c2ccc(C(=O)CCC3CCCCC3)c(C(=O)O)c2)nc1` [Example 18, 5-(5-((4-Chlorophenyl)(methyl)amino)picolinoyl)-2-(3-cyclohexylpropanoyl)benzoic acid], the solubility (thermodynamic) at 24 h in data set [1] stood at 37 µM (≈ 18.7 µg/mL). The concentration for half-maximal inhibition (IC50) against LTC4 synthase [2] came out at 59 nM.

Consider `CC(=O)c1ccc(C(=O)c2ccc(N(CC3CC3)c3ccc(Cl)cc3)cn2)cc1C(=O)O` [Example 22, 2-Acetyl-5-(5-((4-chlorophenyl)(cyclopropylmethyl)amino)picolinoyl)benzoic acid], for which the thermodynamic solubility at 24 h in data set [1] amounted to 1860 µM (≈ 835 µg/mL). This compound registered a concentration for half-maximal inhibition (IC50) on LTC4 synthase [3] of 307 nM.

Turning to `CCC(=O)c1ccc(C(=O)c2ccc(N(CC3CC3)c3ccc(Cl)cc3)cn2)cc1C(=O)O` [Example 23, 5-(5-((4-Chlorophenyl)(cyclopropylmethyl)amino)picolinoyl)-2-propionylbenzoic acid], the IC50 on LTC4 synthase [3] amounted to 129 nM. In other words, the sub-micromolar range.

Compound `O=C(c1ccc(C(=O)C2CC2)c(C(=O)O)c1)c1ccc(N(CC2CC2)c2ccc(Cl)cc2)cn1` [Example 24, 5-(5-((4-Chlorophenyl)(cyclopropylmethyl)amino)picolinoyl)-2-(cyclopropanecarbonyl)benzoic acid] registered an IC50 on LTC4 synthase [3] of 424 nM.

Values taken from patent US20130035358A1, “Bis Aromatic Compounds for Use as LTC4 Synthase Inhibitors” (priority 2010, published 2013).
